Results taken from a melting point compilation (Tetko et al.).

SMILES	melting point [°C]
O=C(O)c1cc(-c2ccccc2)nc2c1cnn2Cc1ccco1	242 to 244
CN1CCN(C2=c3ccccc3=Nc3ccc(Cl)cc3N2)CC1	184 to 186
O=C(O)c1cnc2ccc(Br)cc2c1O	274 to 276
COc1ccc2c(c1)CC(=O)NCC2	151 to 153
O=C(O)CNC(=O)c1cccs1	169 to 171
Nc1ccc(S(=O)(=O)CCO)cc1	106 to 108
O=C(O)CSc1ccc(Br)cc1	117 to 119
NC(=O)CC1CCCCN1 (configuration not stated)	108 to 110
COc1ccc(Nc2ncccc2N)cc1	164 to 166
O=Cc1ccc(-c2ccc([N+](=O)[O-])cc2Cl)o1	136 to 138
O=C(CSc1ccccc1C(=O)O)c1ccc(-c2ccccc2)cc1	189 to 191
CCOC=C(C#N)C(=O)O	63 to 65
CC1CNc2cccnc2O1 (configuration not stated)	132 to 134
NC(=O)c1ncon1	156 to 158
Sc1nc2ccccc2n1C1CCCCC1	178 to 182
O=C(NCc1ccco1)OCC(F)(F)F	35 to 37
COC(=O)c1cnc(N)nc1	209 to 211
O=C(O)CC(O)(c1nc2ccccc2o1)C(F)(F)F (configuration not stated)	194 to 196
O=c1[nH]c2c(s1)CCCC2	141 to 143
Cc1cc(N)n(-c2nc3ccccc3o2)n1	221 to 223
COC(=O)c1ccc(CNc2ccc3c[nH]nc3c2)cc1	152 to 154
CC1(C)CC(=O)OC1=O	29 to 31
CN(CCO)c1ccc([N+](=O)[O-])cc1	97 to 99
O=C(O)CCC1NC(=O)N(c2ccc(F)cc2F)C1=O (configuration not stated)	183 to 185
CC(C)(C)OC(=O)Nc1cccc(C(N)=NO)c1	168 to 170

SMILES	melting point [°C]
CC(=O)CCCCCCC(=O)O	38 to 40
CS(=O)(=O)NCCc1ccc(C(=O)O)cc1	171 to 173
N#Cc1cnc2ccccc2c1N1CCNCC1	160 to 162
NC(=S)COCc1ccccc1	43 to 45
COc1cccc(-c2noc(SCC(=O)O)n2)c1	103 to 105
O=C(O)c1cc(Cl)ccc1Sc1ccc(Cl)cc1	158 to 160
NC1CCCN(c2cc(C(=O)O)ccn2)C1 (configuration not stated)	252 to 254
O=C(O)Cc1ccc(N2CCCC2=O)cc1	120 to 122
CCc1nc(C(=O)O)nn1-c1ccccc1	145 to 147
N#Cc1ccc(Oc2cccnc2)cc1	50 to 52
CC1(c2ccc(F)c(F)c2)NC(=O)NC1=O (configuration not stated)	175 to 177
Cc1ccc(NS(C)(=O)=O)c(C(=O)O)c1	195 to 197
COC(=O)c1cc(S(=O)(=O)Cl)cnc1Cl	48 to 50
COc1ccc(CNc2cnn(C)c2)c(OC)c1	81 to 83
Cc1ccc(-c2nn(CCC#N)cc2C(=O)O)cc1C	174 to 176
CC(NO)c1ccccc1 (configuration not stated)	73 to 75
CC(N)Cc1cccc(O)c1 (configuration not stated)	45 to 47
N#CCN1CCSCC1	51 to 53
CCOc1ccc(C(=O)N2CCCCC2)cc1N	143 to 145
O=C(O)CCNS(=O)(=O)c1c(Cl)cccc1Cl	119 to 121
CC(C)(C)NS(=O)(=O)c1ccc(N)nc1	146 to 148
COC(=O)NCC(=O)O	93 to 95
O=C1COc2ccc(Br)cc21	111 to 113
C/C(=N\Nc1ccc(Cl)c(C(=O)O)c1)c1ccc(Br)cc1	180 to 182
O=C1CCOc2cc3c(cc21)OCO3	96 to 98

SMILES	melting point [°C]
CN(Cc1ccccc1)S(N)(=O)=O	92 to 94
Cn1cc(C(=O)NCC2CCNCC2)cn1	175 to 177
CCOC(=O)N1CCC(NC(N)=S)CC1	160 to 162
Nc1nc(Cc2ccccc2Br)cs1	115 to 117
NC(=O)Cn1c(S)nnc1-c1cccs1	319 to 321
Sc1nnc(COc2ccc(Cl)cc2)n1Cc1ccccc1	211 to 213
CC(C)(C)OC(=O)NC1CCC(=O)CC1	113 to 115
O=C(NCCN1CCOCC1)C1CCNCC1	127 to 129
CCOc1ccccc1C(=O)NC(C(=O)O)C(C)C (configuration not stated)	127 to 129
NC1(C(F)(F)F)CCC(O)CC1 (configuration not stated)	98 to 100
CC(=O)Nc1cc(-c2csc(N)n2)ccc1O	218 to 222
CCn1cc(N)c(=O)c(Br)c1	116 to 118
O=c1[nH][nH]c2cccc(Cl)c12	247 to 249
CC(Cl)C(=O)NC1(C#N)CCCCC1 (configuration not stated)	100 to 102
COc1cccc(-c2cc(N)n(CCO)n2)c1	148 to 150
O=C(O)c1ccn(-c2cccc(C(F)(F)F)c2)n1	155 to 157
OCc1cnn(-c2ccccc2)n1	70 to 72
OCC1CN(Cc2ccccc2)CC1CO (configuration not stated)	94 to 96
COc1ccc(C(=O)NNC(=O)CCl)cc1OC	173 to 175
CC(C)CC(CCC(=O)O)C(=O)O (configuration not stated)	66 to 68
CCCOc1ccc(C=O)c(OCCC)c1	58 to 60
Cc1cc(Cl)cc2cccnc12	62 to 64
COCCNS(=O)(=O)c1ccc(Br)c(C(=O)O)c1	194 to 197
C=CS(=O)(=O)c1ccc(C(C)(C)C)cc1	91 to 93
Cc1cc(-c2csc(N)n2)c(C)o1	89 to 91

SMILES	melting point [°C]
O=C(O)Cn1nccn1	129 to 131
Nc1ncc(Cc2ccc(Cl)c(Cl)c2)s1	83 to 85
Cc1ccc(NC(N)=O)c(C)c1	215 to 217
COC(=O)c1ccc(C)c(O)c1	119 to 121
Cc1nc(NC(=N)N)nc2ccccc12	339 to 341
CC1CCCCC1NC(=O)CCl (configuration not stated)	100 to 102
Cc1cc2ncn(Cc3ccc(Cl)cc3)c2cc1C	143 to 145
NCC(O)COc1ccc2c(c1)CCC(=O)N2 (configuration not stated)	103 to 105
CNC(C(=O)O)c1cc(F)c(F)c(F)c1 (configuration not stated)	247 to 249
CCC(C)NC(=O)c1cccc(CN)c1 (configuration not stated)	95 to 97
COc1ccc(S(=O)(=O)Cl)c(Cl)c1Cl	92 to 94
COc1c(C)cnc(Cn2ccc(N)n2)c1C	59 to 61
OCc1c(Cl)nc2sccn12	174 to 176
O=C(O)c1cccc2c3c([nH]c12)CCCCC3	225 to 227
O=C(O)c1ccc([N+](=O)[O-])cc1Br	164 to 166
CN1CCN(CCc2ccc(N)cc2)CC1	64 to 66
CCC(=O)N1CCC(C(=O)O)C1 (configuration not stated)	118 to 120
CC(C)(C)NS(=O)(=O)c1cc(C(=O)O)ccc1F	182 to 184
Cc1ccc(S(=O)(=O)Nc2ccc(C(=O)O)cc2)cc1C	219 to 221
N#CC1(NC(=O)c2ccccc2)CCC1	126 to 128
NC(=O)CCn1ccc(N)n1	142 to 144
NC(=O)c1ccccc1OCCO	112 to 114
Cc1nc2ccccc2nc1CCl	121 to 123
C=CCNc1nc2c(s1)CCCC2	77 to 79
O=C(O)c1cc(S(=O)(=O)F)cs1	191 to 193

SMILES	melting point [°C]
Cc1ccn(-c2ccc(Cl)nn2)n1	169 to 171
ON=Cc1ccc(OCc2ccccc2)cc1	109 to 111
COc1cccc(-n2nc(C)c(CCC(=O)O)c2C)c1	104 to 115
Cn1cc(C(=O)NN)c2ccccc21	138 to 140
Nc1onc(-c2ccc(Br)s2)c1-c1ccc(F)cc1	141 to 143
O=C(O)c1ccnc(OC2CCCCC2)c1	123 to 125
Clc1ccc(C2CNCCO2)cc1 (configuration not stated)	55 to 57
OCCOc1ccccc1O	99 to 100
Cc1ccc(=O)n(CC(=O)O)n1	249 to 251
N#Cc1ccc(CSc2ccccc2C(=O)O)cc1	208 to 210
CC(=O)c1ccc2c(c1)Nc1ccccc1S2	180 to 185
Cc1noc(COc2ccc(O)cc2)n1	62 to 64
CC(C)(C)CCCC(=O)O	36 to 38
CCC(CC)n1nc(C(=O)O)cc1C	110 to 112
CC(C)Cn1[nH]ccc1=NC(=O)OCC(F)(F)F	63 to 65
CC(C)Oc1ccc(S(=O)(=O)N2CCOCC2)cc1N	149 to 151
CC1CCCCN1S(=O)(=O)c1cccc(C(=O)O)c1 (configuration not stated)	149 to 151
COCc1nnc(NN)s1	109 to 111
N#CCn1cc(N)cn1	71 to 73
CCc1cccc2c(C(=O)CC#N)c[nH]c12	178 to 180
Cc1ccc(C)c(-n2c(=O)c(N)c(C)n2C)c1	19 to 20
C=CCOc1ccccc1C(=O)O	58 to 60
CC(C)(C)C(Br)C(N)=O (configuration not stated)	91 to 93
COc1ccc(C=O)cc1OCc1cccnc1	84 to 86
O=C(c1ccc(Cl)c(Cl)c1)N1CCNCC1	74 to 76

SMILES	melting point [°C]
Nc1cnccc1O	156 to 158
O=Cc1cc(C(=O)O)cs1	173 to 175
Oc1cccc2ccc(N3CCCCC3)nc12	69 to 71
CC1=CC(=O)N(C2CCCCC2)C1=O	99 to 101
N#Cc1cc2ccccc2[nH]c1=O	327 to 329
NCc1cccc(CS(N)(=O)=O)c1	142 to 144
Sc1nncn1C1CC1	189 to 191
CC(C)n1nccc1C(=O)O	149 to 151
CCCCCn1cc(C(=O)O)c2ccccc21	97 to 99
Fc1ccc(NCc2ccccn2)cc1	71 to 73
c1cc(OCC2CO2)c2cc[nH]c2c1 (configuration not stated)	52 to 54
O=C(O)C1CCN(C(=O)Nc2ccccc2)CC1	178 to 183
O=C(O)Cn1nnc(-c2cccs2)n1	220 to 222
Nc1ccc(Oc2ccnc3cc(Cl)ccc23)c(F)c1	154 to 156
CCN1C(=O)CC(=O)NC1=O	118 to 120
COC(=O)c1ccc(Cl)nc1Cl	56 to 58
O=C(O)c1ccc(F)c(S(=O)(=O)N2CCOCC2)c1	175 to 178
O=c1c2ccccc2c(-c2nnc(S)o2)nn1Cc1ccccc1	238 to 242
O=C(O)[C@@H]1CC(O)CN1C(=O)OCC1c2ccccc2-c2ccccc21 (some centres not stated)	189 to 191
COc1cc(C#N)ccn1	94 to 96
CS(=O)(=O)c1ccc(C(N)=S)cc1	216 to 218
c1ccc(N2CCN(CC3CCCNC3)CC2)nc1 (configuration not stated)	73 to 75
